Counter-ions that a name gives are not always drawn.
Target: T1, 5HT6 human recombinant receptor (Homo sapiens, UniProt P50406)
T1 construct: purchased Receptor Biology; host or cells: HEK-293 cell membranes (recombinant expression)
Assay: Binding Test to 5-HT6 Receptors ([3H]-LSD displacement, HEK-293 membranes)
Settings: [3H]-LSD 2.7 nM, 60 min, 37° C.; for inhibition at 0.1 µM: compound at 10^−7 M; for inhibition at 0.01 µM: compound at 10^−8 M
Protocol: Binding Test to 5-HT6 Receptors
Membranes of HEK-293 cells expressing the 5HT6 human recombinant receptor were supplied by Receptor Biology. In these membranes the receptor concentration is 2.18 pmol/mg protein and the protein concentration is 9.17 mg/ml. The experimental protocol follows the method of B. L. Roth et al. [B. L. Roth, S. C. Craigo, M. S. Choudhary, A. Uluer, F. J. Monsma, Y. Shen, H. Y. Meltzer, D. R. Sibley: Binding of Typical and Atypical Antipsychotic Agents to 5-Hydroxytryptamine-6 and Hydroxytriptamine-7 Receptors. The Journal of Pharmacology and Experimental Therapeutics, 1994, 268, 1403] with slight modifications. The commercial membrane is diluted (dilution 1:40) with the binding buffer: 50 mM Tris-HCl, 10 mM MgCl2, 0.5 mM EDTA (pH 7.4). The radioligand used is [^3H]-LSD at a concentration of 2.7 nM with a final volume of 200 μl. Incubation is initiated by adding 100 μl of the membrane suspension (≈22.9 μg membrane protein), and continues for 60 minutes at a temperature of 37° C. Incubation ends by fast filtration in a Harvester Brandel Cell through glass fibre filters manufactured by Schleicher & Schuell GF 3362 pre-treated with a 0.5% polyethylenimine solution. The filters are washed three times with three millilitres of Tris-HCl 50 mM pH 7.4 buffer. The filters are transferred to phials and to each phial 5 ml of liquid scintillation cocktail Ecoscint H is added. The phials are allowed to reach equilibrium for several hours before being counted in a Wallac Winspectral 1414 scintillation counter. Non-specific binding is determined in the presence of 100 μM serotonin. The tests are performed in triplicate. The inhibition constants (Ki, nM) are calculated by non-linear regression analysis using the program EBDA/LIGAND [Munson and Rodbard, Analytical Biochemistry, 1980, 107, 220].

T1 sequence (P50406 whole entry): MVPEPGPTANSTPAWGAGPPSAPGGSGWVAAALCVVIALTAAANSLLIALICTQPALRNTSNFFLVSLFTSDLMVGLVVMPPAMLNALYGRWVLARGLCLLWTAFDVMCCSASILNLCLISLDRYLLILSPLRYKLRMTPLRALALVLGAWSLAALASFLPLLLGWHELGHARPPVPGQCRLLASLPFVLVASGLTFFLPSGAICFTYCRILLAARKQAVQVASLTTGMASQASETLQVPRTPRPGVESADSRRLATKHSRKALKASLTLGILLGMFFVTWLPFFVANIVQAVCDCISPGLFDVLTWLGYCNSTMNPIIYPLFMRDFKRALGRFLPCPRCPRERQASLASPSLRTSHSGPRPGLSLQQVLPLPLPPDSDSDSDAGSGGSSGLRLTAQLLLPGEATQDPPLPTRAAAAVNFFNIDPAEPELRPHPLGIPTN

Structure (SMILES) | inhibition at 0.1 µM [%] | inhibition at 0.01 µM [%]
N=C(N)N/N=C1/CCc2ccc(NS(=O)(=O)c3ccc4ccccc4c3)cc21 [Compound 8, 2-{6-[(2-naphthylsulfonyl)amino]-2,3-dihydro-1H-inden-1-ylidene}hydrazinecarboximidamide hydrochloride] | 82.2 | 56.1
CN1CCN(C2CCc3cc(NS(=O)(=O)c4c(Cl)nc5sccn45)ccc32)CC1 (centres unmarked) [Compound 14, 6-chloro-N-[1-(4-methylpiperazin-1-yl)-2,3-dihydro-1H-inden-5-yl]imidazo[2,1b][1,3]thiazole-5-sulfonamide] | 85.8 | 75.5
CC1Cc2ccc(NS(=O)(=O)c3c(Cl)nc4sccn34)cc2/C1=N\NC(=N)N (centres unmarked) [Compound 11, 2-(6-{[(6-chloroimidazo[2,1-b][1,3]thiazol-5-yl)sulfonyl]amino}-2-methyl-2,3-dihydro-1H-inden-1-ylidene)hydrazinecarboximidamide] | 91.1 | 84.7
CN1CCOc2cc(S(=O)(=O)Nc3ccc4c(c3)C(=NNC3=NCCN3)CC4)ccc21 [Compound 26, N-[3-(4,5-dihydro-1H-imidazol-2-ylhydrazono)-2,3-dihydro-1H-inden-5-yl]-4-methyl-3,4-dihydro-2H-1,4-benzoxazine-7-sulfonamide hydrochloride] | 84.6 | 51
CN1CCN(C2CC(C)(C)c3ccc(NS(=O)(=O)c4c(Cl)nc5sccn45)cc32)CC1 (centres unmarked) [Compound 15, 6-chloro-N-[1,1-dimethyl-3-(4-methylpiperazin-1-yl)-2,3-dihydro-1H-inden-5-yl]imidazo[2,1-b][1,3]thiazole-5-sulfonamide] | 30.3 | -6.6
CN1CCN(C2CCc3ccc(N(C)S(=O)(=O)c4c(Cl)nc5sccn45)cc32)CC1 (centres unmarked) [Compound 16, 6-chloro-N-methyl-N-[3-(4-methylpiperazin-1-yl)-2,3-dihydro-1H-inden-5-yl]imidazo[2,1-b][1,3]thiazole-5-sulfonamide] | 72.7 | 29
Cc1c(S(=O)(=O)Nc2ccc3c(c2)C(N2CCN(C)CC2)CC3)sc2ccc(Cl)cc12 (centres unmarked) [Compound 3, N-[3-(4-methylpiperazin-1-yl)-2,3-dihydro-1H-inden-5-yl]-5-chloro-3-methylbenzo[b]thiophene-2-sulfonamide] | 87.9 | 55.7
N=C(N)N/N=C1/CCc2ccc(NS(=O)(=O)c3c(Cl)nc4sccn34)cc21 [Compound 9, 2-(6-{[(6-chloroimidazo[2,1-b][1,3]thiazol-5-yl)sulfonyl]amino}-2,3-dihydro-1H-inden-1-ylidene)hydrazinecarboximidamide] | 89.6 | 84.7
CN1CCN(C2CCc3ccc(NS(=O)(=O)c4ccc5ccccc5c4)cc32)CC1 (centres unmarked) [Compound 2, N-[3-(4-methylpiperazin-1-yl)-2,3-dihydro-1H-inden-5-yl]naphtalene-2-sulfonamide] | 89.1 | 71.6
CC1(C)CC(=NNC(=N)N)c2cc(NS(=O)(=O)c3c(Cl)nc4sccn34)ccc21 [Compound 20, 2-(6-{[(6-chloroimidazo[2,1-b][1,3]thiazol-5-yl)sulfonyl]amino}-3,3-dimethyl-2,3-dihydro-1H-inden-1-ylidene)hydrazinecarboximidamide hydrochloride] | 87.7 | 77.2
CN(c1ccc2c(c1)/C(=N\NC(=N)N)CC2)S(=O)(=O)c1c(Cl)nc2sccn12 [Compound 22, 2-(6-{[(6-chloroimidazo[2,1-b][1,3]thiazol-5-yl)sulfonyl](methyl)amino}-2,3-dihydro-1H-inden-1-ylidene)hydrazinecarboximidamide hydrochloride] | 89.2 | 83.9
O=S(=O)(Nc1ccc2c(c1)C(=NNC1=NCCN1)CC2)c1c(Cl)nc2sccn12 [Compound 24, 6-chloro-N-[3-(4,5-dihydro-1H-imidazol-2-ylhydrazono)-2,3-dihydro-1H-inden-5-yl]imidazo[2,1-b][1,3]thiazole-5-sulfonamide hydrochloride] | 87.7 | 83.3
CN1CCOc2cc(S(=O)(=O)Nc3ccc4c(c3)/C(=N\NC(=N)N)CC4)ccc21 [Compound 23, 2-(6-{[(4-methyl-3,4-dihydro-2H-1,4-benzoxazine-7-yl)sulfonyl]amino}-2,3-dihydro-1H-inden-1-ylidene)hydrazinecarboximidamide hydrochloride] | 87.3 | 69.3
CN1CCN(C2CCc3ccc(NS(=O)(=O)c4c(Cl)nc5sccn45)cc32)CC1 (racemic) [Compound 4, N-[3-(4-methylpiperazin-1-yl)-2,3-dihydro-1H-inden-5-yl]-6-chloroimidazo[2,1-b][1,3]thiazole-5-sulfonamide] | 83.4 | 63
N=C(N)NN=C1CCc2cc(NS(=O)(=O)c3c(Cl)nc4sccn34)ccc21 [Compound 21, 2-(5-{[(6-chloroimidazo[2,1-b][1,3]thiazol-5-yl)sulfonyl]amino}-2,3-dihydro-1H-inden-1-ylidene)hydrazinecarboximidamide hydrochloride] | 86.9 | 78.1
O=S(=O)(Nc1ccc2c(c1)C(N1CCNCC1)CC2)c1c(Cl)nc2sccn12 (centres unmarked) [Compound 5, N-[3-(piperazin-1-yl)-2,3-dihydro-1H-inden-5-yl]-6-chloroimidazo[2,1-b][1,3]thiazole-5-sulfonamide] | 85.6 | 63.6

— US20100069378A1, “SUBSTITUTED INDANYL SULFONAMIDE COMPOUNDS, THEIR PREPARATION AND USE AS MEDICAMENTS” (LABORATORIOS DEL DR. ESTEVE, S.A., priority 2006, published 2010)
